Experimental data: paper PMC12120644, “Modulation of the Inflammatory Process through the Control of Cyclooxygenase Using Peptides Obtained from Lithobates Catesbeianus Identified by Molecular Docking” (ACS Omega, 2025)
Entries after “also recorded” stand apart in the source; their conditions may differ. No end group written: not given here.

Experiments:
IL-6 = IL-6 immunoassay (ELISA), LPS-stimulated macrophages; type: cell-based, murine; conditions: LPS 1 μg/mL for 4 h, 1 mM the only significant of 0.025, 0.05, 0.5, and 1 mM, ELISA 405 nm
Protocol: Quantification of IL-6 was determined using the Murine Mini ABTS IL-6 ELISA kit (PeproTech, Cat No. 900-M50), according to the manufacturer’s instructions. The absorbance was measured at 405 nm, and IL-6 concentrations were quantified based on the IL-6 standard curve (0−4000 pg/mL).
5 IL-6 concentration (pg/mL) in macrophages treated at 0.025, 0.05, 0.5, and 1.0 mM peptide 1 and exposure to 1 μg/mL LPS for 4 h. Ctrl-: Negative control (cells + DMEM); Ctrl+: Positive control 1 (cells + DMEM+ and LPS); P1 (cells + DMEM + peptide at different concentrations + LPS). Data (n = 3) are expressed as mean and standard error.

total cyclooxygenase = experiment: COX inhibition assay (total COX activity, LPS-stimulated RAW 264.7); type: cell-based; conditions: RAW 264.7 stimulated with LPS 1 μg/mL for 4 h, peptide 1 mM, chemiluminescent enzymatic kit (Cayman), vs LPS control, t test P < 0.05
Protocol: The in vitro total cyclooxygenase inhibition was evaluated using a chemiluminescent enzymatic kit (Cayman Chemical, MI), according to the manufacturer’s protocol. The RAW 264.7 cell line was purchased from the American Type Culture Collection (Rockville, MD) and routinely grown in DMEM supplemented with 10% fetal bovine serum (FBS). The cells were subcultured every 3 to 4 days at 1 × 10^8 cells/mL. The positive control group was exposed to lipopolysaccharide (LPS) at 1 μg/mL for 4 h to induce inflammation. Cells were collected and centrifuged at 600g for 10 min at 4 °C. The supernatant was carefully removed and cells were resuspended in 2 mL of DMEM, resulting in 1 × 10^8 cells/mL.
4 Effect of SGHPGAMGPVGPR (P1), IGPAGSAGSR (P2), GPSGPAGARGDK (P3), and […] (P4) peptides on the total COX activity. The RAW 264.7 cells were subcultured at 1 × 10^8 cells/mL density and stimulated with LPS at 1 μg/mL for 4 h. Cells were collected by centrifugation at a speed of 2.000 rpm for 10 min at 4 °C and were resuspended in DMEM. After that, cells were treated with the peptides, and ELISA was performed. Significant by the t test (P < 0.05). CTRL: control (cells stimulated with LPS).

SGHPGAMGPVGPR [Peptide P1]
IL-6 levels (in words) (IL-6; n = 3): downregulating IL-6 expression; also recorded: significantly downregulated IL-6 levels in a dose-dependent manner | IL-6 levels (in words) (IL-6; n = 3, listed as peptide 1): best results in decreasing the cells’ total COX and IL-6 cytokines | total COX activity (in words) (total cyclooxygenase): effectively inhibiting total COX activity; also recorded: only peptide P1 exhibited an inhibitory capacity on the total COX activity; also recorded: only P1 demonstrated the ability to reduce the total COX activity | total COX activity (in words) (total cyclooxygenase; listed as peptide 1): best results in decreasing the cells’ total COX
